Experiments:
CHK1 = CHK1 (Homo sapiens (Human), UniProt O14757); assay: CHK1 inhibitory activity test (IMAP TR-FRET)
ES-2 cells = assay: Cell growth suppression experiment; type: cell-based
Experimental: ES-2 cells were obtained from the American Type Culture Collection (ATCC). These cells were cultured at 37° C. in the presence of 5% CO2 in a 10% fetal bovine serum, 1% penicillin/streptomycin containing McCoy's 5a medium.
500 cells were seeded for each well in a 384-well plate, and the evaluated compound was added so that the final concentration of DMSO would be 0.1% to culture the cells for 2 days. After completion of the culture, the cell viability rate was calculated using CellTiter-Glo® 3D Reagent (Promega, G968B).
The results of cell growth suppression test on representative compounds of the present disclosure are listed in the following table based on the ranking of I, IT, III, IV, and V (1000 nM<I, 1000 nM>TI>300 nM, 300 nM>III>100 nM, 100 nMV>IV>30 nM, 30 nM>V).

Chain of CHK1 (O14757 whole entry): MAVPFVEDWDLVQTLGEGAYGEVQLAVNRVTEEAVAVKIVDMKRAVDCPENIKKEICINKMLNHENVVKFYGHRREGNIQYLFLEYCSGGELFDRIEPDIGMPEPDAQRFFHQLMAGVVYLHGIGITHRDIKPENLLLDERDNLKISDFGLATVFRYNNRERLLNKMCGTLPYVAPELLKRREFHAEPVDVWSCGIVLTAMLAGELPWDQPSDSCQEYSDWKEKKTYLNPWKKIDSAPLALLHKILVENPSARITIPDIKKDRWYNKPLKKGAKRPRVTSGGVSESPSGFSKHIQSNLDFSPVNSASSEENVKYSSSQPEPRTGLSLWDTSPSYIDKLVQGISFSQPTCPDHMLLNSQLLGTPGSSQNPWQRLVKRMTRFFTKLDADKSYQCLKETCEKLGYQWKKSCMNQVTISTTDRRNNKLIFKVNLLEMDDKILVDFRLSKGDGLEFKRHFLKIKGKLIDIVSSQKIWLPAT

| SMILES | IC50 (CHK1) [nM] | effect of suppressing CHK1 activity compared with prexasertib (CHK1) | cell growth suppression effect compared with prexasertib (ES-2 cells) |
| --- | --- | --- | --- |
| COc1cncc(O[C@H](C)C2(O)CNC2)c1-c1cc(Nc2cnc(C#N)cn2)n[nH]1 [Example 34, 5-[(5-{3-[(1R)-1-(3-hydroxyazetidin-3-yl)ethoxy]-5-methoxypyridin-4-yl}-1H-pyrazol-3-yl)amino]pyrazine-2-carbonitrile] | 1.82 |  |  |
| COc1cncc(OCC2CNC2)c1-c1cc(Nc2cnc(C#N)cn2)n[nH]1 [Example 18, 5-({5-[3-(azetidin-3-yl)methoxy-5-methoxypyridin-4-yl]-1H-pyrazol-3-yl}amino)pyrazine-2-carbonitrile] | 0.51 | more potent effect of suppressing CHK1 activity than prexasertib |  |
| N#Cc1cnc(Nc2cc(-c3c(OCF)cncc3OCCCN)[nH]n2)cn1 [Example 24, 5-({5-[3-(3-aminopropoxy)-5-(fluoromethoxy)pyridin-4-yl]-1H-pyrazol-3-yl}amino)pyrazine-2-carbonitrile] | 0.3 | more potent effect of suppressing CHK1 activity than prexasertib |  |
| COc1cc(Cl)nc(OCCCN)c1-c1cc(Nc2cnc(C#N)cn2)n[nH]1 [Example 2, 5-({5-[2-(3-aminopropoxy)-6-chloro-4-methoxypyridin-3-yl]-1H-pyrazol-3-yl}amino)pyrazine-2-carbonitrile] | 0.22 | more potent effect of suppressing CHK1 activity than prexasertib |  |
| CN[C@@H]1CC[C@@H](Oc2cncc(OC)c2-c2cc(Nc3cnc(C#N)cn3)n[nH]2)C1 [Example 35, 5-{[5-(3-methoxy-5-{[(1R,3R)-3-(methylamino)cyclopentyl]oxy}pyridin-4-yl)-1H-pyrazol-3-yl]amino}pyrazine-2-carbonitrile] | 0.62 |  | excellent cell growth suppression effect that is equivalent to that of prexasertib |
| COc1cncc(O[C@@H]2CC[C@@H](N)C2)c1-c1cc(Nc2cnc(C#N)cn2)n[nH]1 [Example 32, 5-{[5-(3-{[(1R,3R)-3-aminocyclopentyl]oxy}-5-methoxypyridin-4-yl)-1H-pyrazol-3-yl]amino}pyrazine-2-carbonitrile] |  |  | excellent cell growth suppression effect that is equivalent to that of prexasertib |
| COc1nccc(OCC2(O)CNC2)c1-c1cc(Nc2cnc(C#N)cn2)n[nH]1 [Example 7, 5-[(5-{4-[(3-hydroxyazetidin-3-yl)methoxy]-2-methoxypyridin-3-yl}-1H-pyrazol-3-yl)amino]pyrazine-2-carbonitrile] | 0.21 | more potent effect of suppressing CHK1 activity than prexasertib |  |
| COc1cncc(OC[C@@H](O)CN)c1-c1cc(Nc2cnc(C#N)cn2)n[nH]1 [Example 14, 5-[(5-{3-[(2S)-3-amino-2-hydroxypropoxy]-5-methoxypyridin-4-yl}-1H-pyrazol-3-yl)amino]pyrazine-2-carbonitrile] | 0.22 | more potent effect of suppressing CHK1 activity than prexasertib |  |
| COc1cncc(OCC[C@@H](C)N)c1-c1cc(Nc2cnc(C#N)cn2)n[nH]1 [Example 9, 5-[(5-{3-[(3R)-3-aminobutoxy]-5-methoxypyridin-4-yl}-1H-pyrazol-3-yl)amino]pyrazine-2-carbonitrile] | 0.24 | more potent effect of suppressing CHK1 activity than prexasertib |  |
| COc1cncc(OCC[C@H](C)N)c1-c1cc(Nc2cnc(C#N)cn2)n[nH]1 [Example 10, 5-[(5-{3-[(3S)-3-aminobutoxy]-5-methoxypyridin-4-yl}-1H-pyrazol-3-yl)amino]pyrazine-2-carbonitrile] | 0.3 | more potent effect of suppressing CHK1 activity than prexasertib |  |
